According to patent US7407934B2, “Methods for regulating postprandial blood glucose” (Amylin Pharmaceuticals, Inc., priority 1993, dated 2008):

Tests used:
[1] = Oral glucose tolerance test in dogs during amylin infusion (Example 1); type: in vivo, dog
Protocol: Mongrel dogs (9 males, 12-17 kg wt. range) were used for this study. All animals were fasted overnight prior to each study. Each animal served as its own control for all protocols. Animals were equilibrated for 30-60 minutes prior to the start of each protocol.
25% glucose (1 gm/kg) was administered by mouth at t=0 minutes. […] Samples for insulin, glucose and lactate were obtained at 15 minutes intervals from t=−45 to t=180 minutes.

[2] = Post-prandial plasma glucose after IV bolus or IV infusion in insulin-dependent diabetic subjects (Example 2); type: in vivo, human
Description: (§1) Subjects in each dose group underwent a two period crossover to examine intravenous (IV) bolus versus IV infusion of drug. Each period consisted of a three-day confinement to the study unit. On each occasion, the initial day of confinement was allowed for acclimatization to the study unit. The second and third days constituted an imbedded crossover of placebo versus active medication. […] An imbedded cross-over design for the administration of drug and placebo on Days 2 and 3 of this admission was employed in a manner similar to that used during the first admission. The six subjects assigned to the placebo group received placebo on each of the study days. On study days, intravenous catheters were inserted at least 30 minutes prior to the start of the study. 15 minutes before dosing, the subjects took their usual insulin dose via subcutaneous injection. […] The infusion rate was designed to administer the assigned amount of drug over the two hour period. Thirty minutes later, the subjects ingested their normal breakfasts. Blood samples were taken between −30 and 300 minutes for the measurement of plasma.

[3] = 14-day study, Sustacal meal tolerance test glucose (Example 4); type: in vivo, human; settings: 14 days
Protocol: 72 subjects with insulin-dependent diabetes mellitus participated in a 14-day clinical trial. Each subject was randomly assigned to one of four treatment groups, receiving placebo, 30, 100 or 300 μg tripro-amylin by subcutaneous injection three times a day for 14 days. The subjects also remained on their usual insulin regimen throughout the study. On days 1 (baseline), 7 and 14, standardized meal tolerance tests were performed.
For the standardized meal tolerance tests, subjects were given a Sustacal® liquid meal (360 ml containing 360 calories) at 0800 h. Subjects abstained from food or drink (except for water) from 2200 h the night before. […] For a baseline test, on day 1, tripro-amylin (or placebo) was not administered until after completion of the test. On day 7 and 14, tripro-amylin (or placebo) was administered in a separate injection at the same time as the usual morning insulin dose. Samples for determination of serum glucose levels were drawn at −30, 0, 30, 60, 120 and 180 minutes relative to the start of the challenge. Time zero was considered to be the time when the subject began to drink the Sustacal® meal.

[4] = set-up: species or system human; settings: in vivo, iv
Description: as §1

[5] = Plasma glucose after Sustacal meal or IV glucose load during AC-0137 infusion (Example 3); type: in vivo, human
Description: Twenty-seven subjects with insulin-dependent diabetes mellitus were allocated into a combination of two dose level groups and two types of tolerance tests.
Subjects remained in the clinic for three days. On the first day of confinement, the subjects were acclimatized to the clinic. […] In addition, subjects received either a Sustacal® meal or iv glucose tolerance test, as determined by the group assignment.
During the first day, the subject's usual insulin and caloric intake was stabilized and each subject then followed this insulin and dietary regimen throughout confinement in the clinic.
at approximately, 0700 h (T=0), the continuous infusion of study medication was initiated. At T=30 minutes, the subjects administered their usual AM dose of insulin. […] The type of tolerance test was determined according to the randomization schedule. […] Study drug administration was discontinued at t=300 minutes.
On the morning of the third day, iv lines were again placed in a similar manner as on Day 2. Subjects administered their usual pre-breakfast dose of insulin as on Day 2. […] An identical standardized Sustacal® meal tolerance or iv glucose load as they received on Day 2 was again administered. At the end of the sampling period the iv lines were withdrawn.

[6] = Uptake of labelled oral glucose load in corpulent LA/N rats (Example 6); type: in vivo, rat
Protocol: Uptake of an ingested glucose load was measured in 11 conscious 24-hr fasted corpulent (500-600 g) LA/N rats on 2 occasions, 14 days apart.

In the case of “acetyl-^11,18Arg, ^30Arg, ^32Tyr-^9-32calcitonin (salmon) [AC-0253]”, the “Changes in plasma glucose, antagonist alone” value ([1]; AC-0253 alone) is reported as “no effect”, the “Reversal of amylin-induced changes in plasma glucose” value ([1]; AC-0253 up to 1500 pmol/kg/min with amylin 50 pmol/kg/min) is reported as “does not completely reverse the effects of amylin” and the “Effects on plasma lactate” value ([1]; oral glucose load) is reported as “unremarkable”.

In the case of `CC[C@H](C)[C@H](NC(=O)[C@@H]1CCCN1C(=O)CNC(=O)[C@H](Cc1ccccc1)NC(=O)[C@H](CC(N)=O)NC(=O)[C@H](CC(N)=O)NC(=O)[C@H](CO)NC(=O)[C@H](CO)NC(=O)[C@H](Cc1c[nH]cn1)NC(=O)[C@@H](NC(=O)[C@H](CC(C)C)NC(=O)[C@H](Cc1ccccc1)NC(=O)[C@H](CC(N)=O)NC(=O)[C@H](C)NC(=O)[C@H](CC(C)C)NC(=O)[C@H](CCCNC(=N)N)NC(=O)[C@H](CCC(N)=O)NC(=O)[C@@H](NC(=O)[C@H](C)NC(=O)[C@@H]1CSSC[C@H](NC(=O)[C@@H](N)CCCCN)C(=O)N[C@@H](CC(N)=O)C(=O)N[C@@H]([C@@H](C)O)C(=O)N[C@@H](C)C(=O)N[C@@H]([C@@H](C)O)C(=O)N1)[C@@H](C)O)C(C)C)C(=O)N[C@@H](CC(C)C)C(=O)N1CCC[C@H]1C(=O)N1CCC[C@H]1C(=O)N[C@H](C(=O)N[C@@H](CC(N)=O)C(=O)N[C@H](C(=O)NCC(=O)N[C@@H](CO)C(=O)N[C@@H](CC(N)=O)C(=O)N[C@H](C(=O)N[C@@H](Cc1ccc(O)cc1)C(N)=O)[C@@H](C)O)C(C)C)[C@@H](C)O` [^25,28,29Pro-h-Amylin], the Post-prandial glucose levels ([2]; IV bolus 30 μg) is reported as “no apparent change in glucose levels”, the “Post-prandial rise in glucose” value ([2]; IV bolus 100 μg) is reported as “clearly delayed and less pronounced” and the “Post-prandial rise in glucose” value ([2]; IV bolus 300 μg) is reported as “essentially eliminated”. The “Post-prandial rise in glucose” value ([2]; IV infusion 15 μg/hr) was “highly suggestive of an effect”, the “Post-prandial rise in glucose” value ([2]; IV infusion 50 and 150 μg/hr) was “striking” and the Post-prandial hyperglycemia ([2]; continuous 2-hour IV infusion, 15-150 μg/hr) was “dose-dependent reduction in post-prandial hyperglycemia”. The “Post-meal glucose: Mean of changes in AUC” value ([3]; 30 micrograms s.c. 3 times daily) was −6,645 mb/dl * min, the “Post-meal glucose: Mean of changes in AUC” value ([3]; 100 micrograms s.c. 3 times daily) was −6,412 mb/dl * min and the “Post-meal glucose: Mean of changes in AUC” value ([3]; 300 micrograms s.c. 3 times daily) was −7,316 mb/dl * min. For the same compound, the “Disappearance of drug from plasma compartment” value [4] was “apparent first-order kinetics”, the “Plasma glucose levels vs placebo” value ([5]; IV glucose load 300 mg/kg, 50 μg/hr IV infusion) was “not significantly different from placebo-treated subjects” and the “Plasma glucose levels vs placebo” value ([5]; Sustacal meal, 25 μg/hr or 50 μg/hr IV infusion) was “reduced”.

In the case of “ac-^10N^32Y8-32-salmon calcitonin [AC-0187]”, the “Acceleration of appearance of glucose-derived tritium in plasma” value ([6]; 3 μg s.c. 3 min before gavage, 15 minutes post-gavage (P<0.02)) is reported as 48%, the “Acceleration of appearance of glucose-derived tritium in plasma” value ([6]; 3 μg s.c., 30 minutes post-gavage (P<0.001)) is reported as 45% and the Plasma glucose ([6]; 15 minutes after gavage with 0.5 g glucose, rise from 5.89±0.17) is reported as 8.33 ± 0.28 mM. It also gave a Plasma glucose ([6]; 60 minutes after glucose gavage) of 6.89 ± 0.28 mM.
